We go through one molecule from the NIST ThermoML archive (doi:10.1016/j.tca.2015.05.023).

The conditions of series [1]: Crystal; DTA.
The nature of series [2]: Molar enthalpy of transition or fusion. As to conditions: Crystal; DSC.

± gives the expanded uncertainty stated by the source.

Consider `O=[N+]([O-])[O-].[Na+]` [sodium nitrate], for which the Triple point temperature in series [1] was 581.15 ± 1 K. For the same molecule, in series [2], the “Molar enthalpy of transition or fusion” value amounted to 3.84 ± 0.122 kcal/mol.
